Data set [1] deals with A549 cells. Description: A549 cell growth/death, xCELLigence and microscopy. In kind it is cell-based. To be noted: xCELLigence, concentration gradient. As to the method: To assess the growth inhibitory properties of compounds disclosed herein, 10 μM of Compound 1 was tested against a PBS mock treatment for growth of A549 cells using microscopy at the indicated timepoints shown in the top right corner of each panel of FIG. 2. […] First, 5,000 A549 cells were plated, and adherence and growth was measured for 20 hours using live measurements of current impedance through the plate using the xCELLigence™ instrument. At the […] mark, a concentration gradient of Compound 1 or a PBS control was added to the A549 cells, which were cultured in 100 μL DMEM media with 10% FBS.

A further data set relates to SSP-25 cells. Description: xCELLigence cell death assay in SSP-25 cells (cellular assay for RAD51 inhibition). Format: cell-based. Conditions: concentration gradient added at 20 hour mark, only values with R^>0.85 shown.
The next data set deals with primary fibroblasts. As to the kind of experiment: Selective killing, Cytation imaging of primary fibroblasts. Format: cell-based. Conditions: 10 μM, approx. 5 minute time points. Here is the method: To assess the specificity of compounds disclosed herein in targeting cancers with overexpression of RAD51, Compound 1 was tested against primary fibroblasts and SSP25 cells (cholangiocarcinoma cell line) (FIG. 5). First, 5,000 cells were incubated in 96-well culture plates overnight. Cells were grown in DMEM or RPMI, respectively, with 10% FBS, and […] was added to a concentration of 10 μM and imaging commenced using a Cytation™ instrument using approximately 5 minute time points. DAPI was used to visualize the nuclei and mitotracker-red was used to observe mitochondria. […] Furthermore, cell morphology was affected within 5 minutes of imaging, and the macrobubble phenotype was stable for further periods of time.

The subject of data set [2] is A549 cells. As to the kind of experiment: Intracellular calcium imaging with Fluo-2-AM. To be noted: 30 μM compound, pre-incubation with 2.5 μM Fluo-2-AM. Format: cell-based. From the text:
Timestamps for the duration of the experiment are indicated in each panel.

The subject of another data set is SSP25 cells. As to the kind of experiment: xCELLigence cell death assay with intracellular calcium chelators. Format: cell-based. To be noted: relative to compound alone. As to the method:
To investigate the hypothesis that peptide treatment of cells causes cell death via increases in intracellular free calcium levels, Compound 1 alone and in combination with two different intracellular calcium chelators (1,2-Bis(2-aminophenoxy)ethane-N,N,N′,N′-tetraacetic acid tetrakis(acetoxymethyl ester) aka “BAPTA-AM”, and ammoniated ruthenium oxychloride aka “ruthenium red”) was tested in an xCELLigence™ cell death assay as in Example 1. The intracellular calcium chelators alone were also evaluated on the cells.
For orientation: Calcium assays in cells follow changes in intracellular calcium, usually with a dye or a luminescent sensor.

In a further data set the test system is fresh human RBCs. Format: cell-based. To be noted: red cells of human, 1 h, 250. Summed up: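 Washed RBCs from O+ donors (K2EDTA), diluted to 2% in PBS, incubated with compounds at various concentrations for 1 hr at 37 C. Supernatant absorbance read at 450 or 405 nm after centrifugation; % hemolysis relative to 1% Triton X-100.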
The subject of a further data set is A549 xenograft. Description: A549 xenograft in athymic nude mice, compound 22. In kind it is in vivo. Conditions: 15 mpk IP every other day. As to the method: The anti-cancer activity of compound 22 was assessed in an A549 xenograft model in a method similar to Example 4. Briefly, A549 cells were implanted into athymic nude female mice. Tumors were allowed to grow to 100 mm^3 before initiation of dosing. Mice were randomly distributed into dosing groups with at least 3 animals per group. Mice were dosed using 15 mpk TP injections every other day.
Tumor volumes and mouse weights were recorded at the indicated timepoints. Terminal tumors were excised and weighed (N=3 for each group).

The nature of data set [3]: in vitro. To be noted: mouse, serum.
Protocol: Serum stability data was obtained using the appropriate animal serum, each incubated with the compound for up to two hours at 37 C.
Data set [4] can be described thus: Mouse pharmacokinetics, IV and IP dosing. Format: in vivo, mice. Here is the method:
The pharmocokinetic parameters in mice by both intravenous (IV) and intraperitoneal (IP) dosing, as well as the serum and microsome stability for each of compound 22, 23, 24, and 25 was determined. Bioanalytical methods were developed for each compound using an LC-MS/MS method with LLOQ>100 ng/ml.
For in-vivo PK work, at least 3 mice were used per timepoint. For each compound, the animals were injected either IV or IP with the compound. IV injections used 1 mg/kg, and IP injections were at 15 mg/kg. Blood was collected at the indicated timepoints and analyzed according to the bioanalytical method developed.

Data set [5] is described as follows: in vitro. To be noted: human, microsomes.
Protocol: (§1) For HLM and MLM stability studies, each compound was incubated with the liver microsome mixture for up to an hour at 37 C in the presence of NADPH.
(§2) After the incubations, the reactions were stopped and the compounds were analyzed according to the method developed for each.
Data set [6] in a line: in vitro. To be noted: mouse, microsomes.
Protocol: as §1, §2

For orientation: IC50 means the point on the concentration scale where inhibition reaches its midpoint. A higher IC50 goes with weaker potency in that assay. Usually AUC(0-inf) stands for the area under the concentration-time curve extrapolated to infinity. A low value points to low exposure. A word on the AUC(0-t): it is the area under the concentration-time curve up to a stated or last time point. A high value points to more exposure. The term MRT inf denotes a mean duration of stay, worked out from the concentration-time curve.

Read-outs that look alike come from different tables or passages of the source. Where a SMILES comes first, the peptide text is derived from it. [ ]: non-standard residue; d: D form. 2Nal = N[C@@H](Cc1ccc2ccccc2c1)C(=O)O; dNle = CCCC[C@@H](N)C(=O)O; βAla = NCCC(=O)O Bounds are passed on as bounds.

In the case of `CSCC[C@@H](NC(=O)[C@@H](CC(C)C)NC(C)=O)C(=O)N[C@H](CCCNC(=N)N)C(=O)N[C@H](CO)C(=O)N[C@H](CCC(N)=O)C(=O)N[C@H](CCCNC(=N)N)C(=O)N[C@H](CC(C)C)C(=O)N[C@H](CCCNC(=N)N)C(=O)N[C@H](CCC(N)=O)C(=O)NCC(=O)N[C@H](CC(C)C)C(=O)N[C@H](CCCNC(=N)N)C(=O)N[C@H](CCCCN)C(=O)N[C@H](CCCNC(=N)N)C(=O)N[C@H](CCCNC(=N)N)C(=O)N[C@H](CCCNC(=N)N)C(=O)N[C@H](CCCNC(=N)N)C(=O)N[C@H](CCCNC(=N)N)C(=O)N[C@H](CCCNC(=N)N)C(=O)N[C@H](CCCNC(=N)N)C(N)=O` [Compound 2, Ac-lmrsqrlrqGlrkrrrrrrr-NH2], the “effect on growth / cell death of A549 cells” value in the data set on A549 cells [1] is given as “rapid cell death (decrease in cell index)”. Further, in the data set on SSP-25 cells, the IC50 was 4.22 mM. The “cell morphology / cell death in primary fibroblasts” value with primary fibroblasts was “little cell death is generated in the primary fibroblast cells compared to the SSP25 cells”. The “intracellular calcium (Fluo-2 dye)” value in the data set with A549 cells [2] is recorded as “shows accumulation in response to treatment”. Also, in the data set with SSP25 cells (10 μM compound + 10 μM BAPTA-AM), the “cell death with added calcium chelator BAPTA-AM” value was “able to counteract the cell-death inducing effects”. Moreover, the “cell death with added calcium chelator ruthenium red” value in the data set on SSP25 cells (10 μM compound + 40 μM Ruthenium red) is on record as “able to counteract the cell-death inducing effects”. Also, the “% Hemolysis (250 uM)” value with fresh human RBCs was determined as 1%.
Regarding `CCCC[C@@H](NC(=O)[C@@H](CC(C)C)NC(C)=O)C(=O)N[C@H](CCCNC(=N)N)C(=O)NCCC(=O)N[C@@H](C(=O)N[C@H](CCCNC(=N)N)C(=O)N[C@H](CC(C)C)C(=O)N[C@H](CCCNC(=N)N)C(=O)N[C@@H](C(=O)NCCC(=O)N[C@H](CC(C)C)C(=O)N[C@H](CCCNC(=N)N)C(=O)N[C@H](CCCCN)C(=O)N[C@H](CCCNC(=N)N)C(=O)N[C@H](CCCNC(=N)N)C(=O)N[C@H](CCCNC(=N)N)C(=O)N[C@H](CCCNC(=N)N)C(=O)N[C@H](CCCNC(=N)N)C(=O)NCC(=O)N[C@@H](Cc1ccc2ccccc2c1)C(N)=O)C(C)C)C(C)C` [Compound 22, Ac-l{d-norLeucine}r[beta-ALA]vrlrv[beta-ALA]lrkrrrrrGΦ-NH2] (Ac-[dL][dNle][dR][βAla][dV][dR][dL][dR][dV][βAla][dL][dR][dK][dR][dR][dR][dR][dR]G[2Nal]-NH2), the IC50 in the data set on SSP-25 cells amounted to 0.018 mM. Further, the tumor growth entry in the data set on A549 xenograft was “effective to reduce tumor growth”. In addition, the half-life in the data set “in vitro [3]” was above 500 min; in data set [4] (in vivo, ip, 15 mg/kg, 15 mg/kg IP, read-out: t½ (converted)) it was 36.3 min; in data set [4] (in vivo, ip, 15 mg/kg, IP (15 mg/kg), read-out: Half-life Mouse IP) it was 36.3 min; in data set [4] (in vivo, iv, 1 mg/kg, 1 mg/kg IV, read-out: t½ (converted)) it was 7.14 min; in data set [4] (in vivo, iv, 1 mg/kg, IV (1 mg/kg), read-out: Half-life Mouse IV) it was 7.16 min; in “in vitro [5]” it was 365 min. Besides, the half-life in the data set “in vitro [6]” was above 500 min. Moreover, the “AUC Extr” value in data set [4] (1 mg/kg IV) is 19.8%. For the same compound, the Vss in data set [4] (15 mg/kg IP) was determined as 1.19 L/kg. In addition, the AUC(0-inf) in data set [4] (in vivo, 1 mg/kg IV) came to 79.3 ng·h/mL; in [4] (in vivo, 15 mg/kg IP), 463 ng·h/mL. Also, in data set [4] (in vivo, 1 mg/kg IV), the AUC(0-t) worked out at 63.9 ng·h/mL. In addition, the C0 in data set [4] (in vivo, 1 mg/kg IV) worked out at 514 ng/mL. Besides, the MRT inf in data set [4] (in vivo, 1 mg/kg IV) is 0.158 h; in data set [4] (in vivo, 15 mg/kg IP), 48.3 h. The clearance in data set [4] (in vivo, 1 mg/kg IV) was 222 mL/min/kg. Moreover, the Vd in data set [4] (in vivo, iv, 1 mg/kg, 1 mg/kg IV, read-out: Vss) was 1.87 L/kg; in [4] (in vivo, iv, 1 mg/kg, 1 mg/kg IV, read-out: Vz), 2.04 L/kg. Besides, the “% Hemolysis (250 uM)” value in the data set with fresh human RBCs was 5%.

Source of the values: patent publication US12590126B2, “Compounds for selective disruption of protein-protein interactions” (SyntheX, Inc., priority 2017, dated 2026).
